Measured values from PubChem BioAssay (NCI).
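At the GI50, growth is halved. TGI denotes the concentration required for complete inhibition of growth.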

Experiments:
Assay in all cases: NCI tumour cell line growth inhibition, 384-well format
[1] = system: EKVX NSCLC
[2] = system: A498 renal
[3] = system: HCC-2998 colon
[4] = system: MCF7 breast
[5] = system: OVCAR-8 ovarian
[6] = system: HCT-116 colon
[7] = system: NCI-H226 lung
[8] = system: HOP-62 NSCLC
[9] = system: KM12 colon
[10] = system: HL-60(TB) leukemia
[11] = system: LOX IMVI melanoma
[12] = system: HS 578T breast
[13] = system: NCI-H460 NSCLC
[14] = system: OVCAR-3 ovarian
[15] = system: HCT-15 colon
[16] = system: NCI/ADR-RES ovarian
[17] = system: TK-10 renal
[18] = system: SF-268 CNS
[19] = system: SNB-19 CNS
[20] = system: A549 NSCLC
[21] = system: MALME-3M melanoma
[22] = system: CAKI-1 renal
[23] = system: MDA-MB-231 breast
[24] = system: HT29 colon
[25] = system: IGROV1 ovarian
[26] = system: BT-549 breast
[27] = system: HOP-92 NSCLC
[28] = system: UACC-62 melanoma
[29] = system: PC-3 prostate
[30] = system: MOLT-4 leukemia
[31] = system: SK-MEL-28 melanoma
[32] = system: NCI-H322M lung
[33] = system: OVCAR-4 ovarian
[34] = system: RPMI-8226 leukemia
[35] = system: SN12C renal
[36] = system: OVCAR-5 ovarian
[37] = system: SNB-75 CNS
[38] = system: UACC-257 melanoma
[39] = system: T-47D breast
[40] = system: DU-145 prostate
[41] = system: ACHN renal
[42] = system: COLO 205 colon
[43] = system: NCI-H522 lung
[44] = system: RXF 393 renal
[45] = system: U251 glioblastoma
[46] = system: NCI-H23 lung
[47] = system: SK-MEL-5 melanoma
[48] = system: SF-539 CNS
[49] = system: SK-OV-3 ovarian
[50] = system: MDA-MB-435 melanoma
[51] = system: SR leukemia
[52] = system: M14 melanoma
[53] = system: MDA-MB-468 breast
[54] = system: SF-295 CNS
[55] = system: K-562 leukemia
[56] = system: 786-0 renal
[57] = system: UO-31 renal
[58] = system: SW-620 colon
[59] = system: SK-MEL-2 melanoma

In the case of `CCc1c[nH]c2ncnc(N3CC[C@@](N)(CNC(=O)c4ccc(F)cc4F)C3)c12`, the GI50 [1] is reported as 28.6 µM, the TGI [1] is reported as > 100 µM and the GI50 [2] is reported as 2.72 µM. For the same molecule, the TGI [2] was 19.3 µM, the GI50 [3] was 18.8 µM and the TGI [3] was > 100 µM. The GI50 [4] was 12.7 µM, the TGI [4] was > 100 µM and the GI50 [5] was 41.3 µM. The TGI [5] was > 100 µM, the GI50 [6] was 20.5 µM and the TGI [6] was > 100 µM. The GI50 [7] was 20.2 µM, the TGI [7] was > 100 µM and the GI50 [8] was 20 µM. The TGI [8] was 93 µM, the GI50 [9] was 4.05 µM and the TGI [9] was > 100 µM. For the same molecule, the GI50 [10] was 15.7 µM, the TGI [10] was 29.4 µM and the GI50 [11] was 18.9 µM. For the same molecule, the TGI [11] was 47.3 µM, the GI50 [12] was 14.9 µM and the TGI [12] was 33.7 µM. For the same molecule, the GI50 [13] was 11.3 µM, the TGI [13] was > 100 µM and the GI50 [14] was 33.8 µM. The TGI [14] was > 100 µM, the GI50 [15] was 32 µM and the TGI [15] was > 100 µM. The GI50 [16] was 89 µM, the TGI [16] was > 100 µM and the GI50 [17] was 13.5 µM. For the same molecule, the TGI [17] was 42.8 µM, the GI50 [18] was 48.3 µM and the TGI [18] was > 100 µM. For the same molecule, the GI50 [19] was 61.9 µM, the TGI [19] was > 100 µM and the GI50 [20] was 20.8 µM. For the same molecule, the TGI [20] was 50.7 µM, the GI50 [21] was 14.2 µM and the TGI [21] was 37.5 µM. For the same molecule, the GI50 [22] was 16.5 µM, the TGI [22] was > 100 µM and the GI50 [23] was 35.6 µM. For the same molecule, the TGI [23] was > 100 µM, the GI50 [24] was 29.1 µM and the TGI [24] was > 100 µM. The GI50 [25] was 6.09 µM, the TGI [25] was 32.4 µM and the GI50 [26] was 10.9 µM. The TGI [26] was 24.9 µM, the GI50 [27] was 28.6 µM and the TGI [27] was > 100 µM. For the same molecule, the GI50 [28] was 18.9 µM, the TGI [28] was 59.2 µM and the GI50 [29] was 22.1 µM. For the same molecule, the TGI [29] was > 100 µM, the GI50 [30] was 5.23 µM and the TGI [30] was 20.3 µM. The GI50 [31] was 25.5 µM, the TGI [31] was > 100 µM and the GI50 [32] was 22 µM. The TGI [32] was 79.4 µM, the GI50 [33] was > 100 µM and the TGI [33] was > 100 µM. For the same molecule, the GI50 [34] was 14.2 µM, the TGI [34] was 54.7 µM and the GI50 [35] was 23.3 µM. It also gave a TGI [35] of 88.5 µM, a GI50 [36] of 17.1 µM and a TGI [36] of 76 µM. The GI50 [37] was 31.3 µM, the TGI [37] was > 100 µM and the GI50 [38] was 16.5 µM. For the same molecule, the TGI [38] was 37 µM, the GI50 [39] was 35.3 µM and the TGI [39] was > 100 µM. The GI50 [40] was 23.2 µM, the TGI [40] was 94.1 µM and the GI50 [41] was 15.5 µM. The TGI [41] was 50 µM, the GI50 [42] was 15.8 µM and the TGI [42] was 41.5 µM. For the same molecule, the GI50 [43] was 16.8 µM, the TGI [43] was 47.4 µM and the GI50 [44] was 27.8 µM. For the same molecule, the TGI [44] was > 100 µM, the GI50 [45] was 37.4 µM and the TGI [45] was > 100 µM. The GI50 [46] was 14.5 µM, the TGI [46] was 39.9 µM and the GI50 [47] was 11 µM. The TGI [47] was 28.4 µM, the GI50 [48] was 11.9 µM and the TGI [48] was > 100 µM. For the same molecule, the GI50 [49] was 13.6 µM, the TGI [49] was > 100 µM and the GI50 [50] was 31.4 µM. For the same molecule, the TGI [50] was > 100 µM, the TGI [51] was 0.816 µM and the GI50 [52] was 28.4 µM. The TGI [52] was > 100 µM, the GI50 [53] was 13.9 µM and the TGI [53] was 55.5 µM. The GI50 [54] was 29.1 µM and the TGI [54] was > 100 µM.
Work on `Cn1cc(-c2ccc(CNc3cc(-c4cnc5cc(OCCCN6CCCC6)ccn45)ncn3)cc2)cn1` yielded a GI50 [1] of 1.67 µM, a TGI [1] of 3.06 µM and a GI50 [2] of 1.78 µM. For the same molecule, the TGI [2] was 3.18 µM, the GI50 [4] was 1.36 µM and the TGI [4] was 2.67 µM. For the same molecule, the GI50 [5] was 1.72 µM, the TGI [5] was 3.11 µM and the GI50 [6] was 1.63 µM. For the same molecule, the TGI [6] was 3.02 µM, the GI50 [55] was 1.5 µM and the TGI [55] was 2.85 µM. It also gave a GI50 [7] of 1.69 µM, a TGI [7] of 3.06 µM and a GI50 [8] of 1.63 µM. It also gave a TGI [8] of 3 µM, a GI50 [9] of 1.85 µM and a TGI [9] of 3.29 µM. It also gave a GI50 [10] of 1.56 µM, a TGI [10] of 2.9 µM and a GI50 [12] of 1.58 µM. For the same molecule, the TGI [12] was 2.93 µM, the GI50 [13] was 1.32 µM and the TGI [13] was 2.62 µM. For the same molecule, the GI50 [14] was 1.84 µM, the TGI [14] was 3.25 µM and the GI50 [15] was 1.77 µM. For the same molecule, the TGI [15] was 3.2 µM, the GI50 [17] was 1.78 µM and the TGI [17] was 3.18 µM. For the same molecule, the GI50 [18] was 1.85 µM, the TGI [18] was 3.28 µM and the GI50 [19] was 1.74 µM. The TGI [19] was 3.41 µM, the GI50 [20] was 1.82 µM and the TGI [20] was 3.23 µM. It also gave a GI50 [21] of 1.83 µM, a TGI [21] of 3.23 µM and a GI50 [22] of 1.86 µM. It also gave a TGI [22] of 3.26 µM, a GI50 [23] of 1.61 µM and a TGI [23] of 2.97 µM. It also gave a GI50 [24] of 0.969 µM, a TGI [24] of 2.15 µM and a GI50 [56] of 1.54 µM. The TGI [56] was 2.89 µM, the GI50 [25] was 1.88 µM and the TGI [25] was 3.34 µM. For the same molecule, the GI50 [26] was 1.62 µM, the TGI [26] was 2.98 µM and the GI50 [27] was 1.84 µM. For the same molecule, the TGI [27] was 3.25 µM, the GI50 [28] was 1.83 µM and the TGI [28] was 3.23 µM. It also gave a GI50 [29] of 1.7 µM, a TGI [29] of 3.28 µM and a GI50 [30] of 1.5 µM. It also gave a TGI [30] of 2.83 µM, a GI50 [31] of 1.82 µM and a TGI [31] of 3.22 µM. It also gave a GI50 [57] of 1.75 µM, a TGI [57] of 3.14 µM and a GI50 [32] of 1.92 µM. It also gave a TGI [32] of 3.57 µM, a GI50 [33] of 1.55 µM and a TGI [33] of 2.91 µM. The GI50 [35] was 1.77 µM, the TGI [35] was 3.16 µM and the GI50 [36] was 1.69 µM. For the same molecule, the TGI [36] was 3.09 µM, the GI50 [37] was 1.79 µM and the TGI [37] was 3.19 µM. For the same molecule, the GI50 [38] was 1.53 µM, the TGI [38] was 2.87 µM and the GI50 [39] was 1.9 µM. The TGI [39] was 3.33 µM, the GI50 [40] was 1.82 µM and the TGI [40] was 3.34 µM. For the same molecule, the GI50 [41] was 1.81 µM, the TGI [41] was 3.21 µM and the GI50 [58] was 1.69 µM. It also gave a TGI [58] of 3.09 µM, a GI50 [42] of 2.01 µM and a TGI [42] of 3.45 µM. For the same molecule, the GI50 [43] was 2.09 µM, the TGI [43] was 3.53 µM and the GI50 [44] was 1.53 µM. For the same molecule, the TGI [44] was 2.87 µM, the GI50 [45] was 1.79 µM and the TGI [45] was 3.2 µM. The GI50 [46] was 11.3 µM, the TGI [46] was 23.5 µM and the GI50 [59] was 1.84 µM. It also gave a TGI [59] of 3.24 µM, a GI50 [47] of 1.49 µM and a TGI [47] of 2.82 µM. It also gave a GI50 [48] of 1.18 µM, a TGI [48] of 2.41 µM and a GI50 [49] of 1.8 µM. The TGI [49] was 3.21 µM, the GI50 [50] was 1.77 µM and the TGI [50] was 3.17 µM. For the same molecule, the GI50 [51] was 1.69 µM, the TGI [51] was 3.07 µM and the GI50 [52] was 1.84 µM. It also gave a TGI [52] of 3.24 µM, a GI50 [53] of 1.8 µM and a TGI [53] of 3.21 µM. The GI50 [54] was 1.81 µM and the TGI [54] was 3.22 µM.
